# Laboratory results from patent US8192962B2, “Processes for detecting toxic substances” (Daikin Industries, Ltd., priority 2001, dated 2012).
# Test system: Unknown protein yeast genes
# Assay: DNA chip mRNA expression in yeast, unknown protein yeast genes (Table 1)
# Type: cell-based, Saccharomyces cerevisiae S288C
# Procedure, shortened: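 Values are treated/untreated fluorescence ratios from a whole-genome yeast DNA chip hybridized over 12 hours at 65° C with Cy3- or Cy5-labelled cDNA from poly(A) mRNA. Log-phase S288C yeast in YPD at 25° C had received a single toxic chemical for two hours, dosed to slow growth without killing.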
smiles,measurement,setting,value
"[Cl][Hg][Cl] [(3), HgCl2]",The level of expressed mRNA in the presence of chemical substance/The level of expressed mRNA in the absence of chemical substance,"yeast gene YKL195W, incubated two hours with chemical substance",0.4
same,The level of expressed mRNA in the presence of chemical substance/The level of expressed mRNA in the absence of chemical substance,"yeast gene YKR091W, incubated two hours with chemical substance",0.9
same,The level of expressed mRNA in the presence of chemical substance/The level of expressed mRNA in the absence of chemical substance,"yeast gene YLR054C, incubated two hours with chemical substance",0.4
same,The level of expressed mRNA in the presence of chemical substance/The level of expressed mRNA in the absence of chemical substance,"yeast gene YLR149C, incubated two hours with chemical substance",3.4
same,The level of expressed mRNA in the presence of chemical substance/The level of expressed mRNA in the absence of chemical substance,"yeast gene YLR152C, incubated two hours with chemical substance",1.1
same,The level of expressed mRNA in the presence of chemical substance/The level of expressed mRNA in the absence of chemical substance,"yeast gene YLR194C, incubated two hours with chemical substance",1.3
same,The level of expressed mRNA in the presence of chemical substance/The level of expressed mRNA in the absence of chemical substance,"yeast gene YLR324W, incubated two hours with chemical substance",0.9
same,The level of expressed mRNA in the presence of chemical substance/The level of expressed mRNA in the absence of chemical substance,"yeast gene YLR350W, incubated two hours with chemical substance",3.2
same,The level of expressed mRNA in the presence of chemical substance/The level of expressed mRNA in the absence of chemical substance,"yeast gene YLR387C, incubated two hours with chemical substance",0.8
same,The level of expressed mRNA in the presence of chemical substance/The level of expressed mRNA in the absence of chemical substance,yeast gene YLR460C,2.0
same,The level of expressed mRNA in the presence of chemical substance/The level of expressed mRNA in the absence of chemical substance,"yeast gene YML117W, incubated two hours with chemical substance",0.9
same,The level of expressed mRNA in the presence of chemical substance/The level of expressed mRNA in the absence of chemical substance,"yeast gene YMR009W, incubated two hours with chemical substance",0.5
same,The level of expressed mRNA in the presence of chemical substance/The level of expressed mRNA in the absence of chemical substance,"yeast gene YMR067C, incubated two hours with chemical substance",1.1
same,The level of expressed mRNA in the presence of chemical substance/The level of expressed mRNA in the absence of chemical substance,yeast gene YMR090W,2.3
same,The level of expressed mRNA in the presence of chemical substance/The level of expressed mRNA in the absence of chemical substance,"yeast gene YMR095C, incubated two hours with chemical substance",1.6
same,The level of expressed mRNA in the presence of chemical substance/The level of expressed mRNA in the absence of chemical substance,"yeast gene YMR097C, incubated two hours with chemical substance",0.7
same,The level of expressed mRNA in the presence of chemical substance/The level of expressed mRNA in the absence of chemical substance,"yeast gene YMR102C, incubated two hours with chemical substance",1.1
same,The level of expressed mRNA in the presence of chemical substance/The level of expressed mRNA in the absence of chemical substance,"yeast gene YMR107W, incubated two hours with chemical substance",1.7
same,The level of expressed mRNA in the presence of chemical substance/The level of expressed mRNA in the absence of chemical substance,"yeast gene YMR180C, incubated two hours with chemical substance",1.0
same,The level of expressed mRNA in the presence of chemical substance/The level of expressed mRNA in the absence of chemical substance,"yeast gene YMR184W, incubated two hours with chemical substance",1.0
same,The level of expressed mRNA in the presence of chemical substance/The level of expressed mRNA in the absence of chemical substance,"yeast gene YMR191W, incubated two hours with chemical substance",1.9
same,The level of expressed mRNA in the presence of chemical substance/The level of expressed mRNA in the absence of chemical substance,"yeast gene YMR295C, incubated two hours with chemical substance",1.2
same,The level of expressed mRNA in the presence of chemical substance/The level of expressed mRNA in the absence of chemical substance,"yeast gene YMR316W, incubated two hours with chemical substance",1.1
same,The level of expressed mRNA in the presence of chemical substance/The level of expressed mRNA in the absence of chemical substance,"yeast gene YNL044W, incubated two hours with chemical substance",2.3
same,The level of expressed mRNA in the presence of chemical substance/The level of expressed mRNA in the absence of chemical substance,"yeast gene YNL074C, incubated two hours with chemical substance",1.8
same,The level of expressed mRNA in the presence of chemical substance/The level of expressed mRNA in the absence of chemical substance,"yeast gene YNL092W, incubated two hours with chemical substance",2.4
same,The level of expressed mRNA in the presence of chemical substance/The level of expressed mRNA in the absence of chemical substance,"yeast gene YNL115C, incubated two hours with chemical substance",1.6
same,The level of expressed mRNA in the presence of chemical substance/The level of expressed mRNA in the absence of chemical substance,"yeast gene YNL156C, incubated two hours with chemical substance",0.9
same,The level of expressed mRNA in the presence of chemical substance/The level of expressed mRNA in the absence of chemical substance,"yeast gene YNL234W, incubated two hours with chemical substance",0.6
same,The level of expressed mRNA in the presence of chemical substance/The level of expressed mRNA in the absence of chemical substance,"yeast gene YNL281W, incubated two hours with chemical substance",2.0
same,The level of expressed mRNA in the presence of chemical substance/The level of expressed mRNA in the absence of chemical substance,"yeast gene YNL305C, incubated two hours with chemical substance",2.7
same,The level of expressed mRNA in the presence of chemical substance/The level of expressed mRNA in the absence of chemical substance,"yeast gene YNR068C, incubated two hours with chemical substance",2.3
same,The level of expressed mRNA in the presence of chemical substance/The level of expressed mRNA in the absence of chemical substance,"yeast gene YOL032W, incubated two hours with chemical substance",2.0
same,The level of expressed mRNA in the presence of chemical substance/The level of expressed mRNA in the absence of chemical substance,"yeast gene YOL036W, incubated two hours with chemical substance",1.3
same,The level of expressed mRNA in the presence of chemical substance/The level of expressed mRNA in the absence of chemical substance,"yeast gene YOL047C, incubated two hours with chemical substance",1.1
same,The level of expressed mRNA in the presence of chemical substance/The level of expressed mRNA in the absence of chemical substance,"yeast gene YOL071W, incubated two hours with chemical substance",1.7
same,The level of expressed mRNA in the presence of chemical substance/The level of expressed mRNA in the absence of chemical substance,"yeast gene YOL082W, incubated two hours with chemical substance",1.6
same,The level of expressed mRNA in the presence of chemical substance/The level of expressed mRNA in the absence of chemical substance,"yeast gene YOL083W, incubated two hours with chemical substance",1.2
same,The level of expressed mRNA in the presence of chemical substance/The level of expressed mRNA in the absence of chemical substance,"yeast gene YOL117W, incubated two hours with chemical substance",0.5
same,The level of expressed mRNA in the presence of chemical substance/The level of expressed mRNA in the absence of chemical substance,"yeast gene YOL131W, incubated two hours with chemical substance",0.6
same,The level of expressed mRNA in the presence of chemical substance/The level of expressed mRNA in the absence of chemical substance,yeast gene YOL150C,9.9
same,The level of expressed mRNA in the presence of chemical substance/The level of expressed mRNA in the absence of chemical substance,"yeast gene YOL162W, incubated two hours with chemical substance",1.7
same,The level of expressed mRNA in the presence of chemical substance/The level of expressed mRNA in the absence of chemical substance,"yeast gene YOR019W, incubated two hours with chemical substance",0.8
same,The level of expressed mRNA in the presence of chemical substance/The level of expressed mRNA in the absence of chemical substance,"yeast gene YOR197W, incubated two hours with chemical substance",1.1
same,The level of expressed mRNA in the presence of chemical substance/The level of expressed mRNA in the absence of chemical substance,"yeast gene YPL087W, incubated two hours with chemical substance",3.0
same,The level of expressed mRNA in the presence of chemical substance/The level of expressed mRNA in the absence of chemical substance,"yeast gene YPL196W, incubated two hours with chemical substance",1.3
same,The level of expressed mRNA in the presence of chemical substance/The level of expressed mRNA in the absence of chemical substance,"yeast gene YPL206C, incubated two hours with chemical substance",1.4
same,The level of expressed mRNA in the presence of chemical substance/The level of expressed mRNA in the absence of chemical substance,"yeast gene YPL222W, incubated two hours with chemical substance",0.8
same,The level of expressed mRNA in the presence of chemical substance/The level of expressed mRNA in the absence of chemical substance,"yeast gene YPR023C, incubated two hours with chemical substance",1.2
same,The level of expressed mRNA in the presence of chemical substance/The level of expressed mRNA in the absence of chemical substance,"yeast gene YPR151C, incubated two hours with chemical substance",1.5
